Laboratory results published in patent publication US20250241994A1, “PHARMACEUTICAL FORMULATION OF GLUCAGON-LIKE PEPTIDE -1 RECEPTOR AGONIST PEPTIDE FOR SUBLINGUAL DELIVERY” (Immunwork Inc., priority 2024, published 2025).
Values after ≈ are worked out from the molar mass of the structure shown.

Key:
[1] = Estimated bioavailability of sublingual relative to subcutaneous delivery (blood glucose lowering at 24 h); set-up: species or system db/db mice; details: male, db/db, mouse, in vivo, bioavailability of sublingually administered GLP-1 RA-P relative to subcutaneous administration
Text: The term “bioavailability of GLP-1 RA-P” as used herein refers to an estimated bioavailability of a sublingually administered GLP-1 RA-P in relative to that achieved by subcutaneous injection. Accordingly, the “bioavailability of GLP-1 RA-P” is expressed as a percentage of bioavailability achieves by subcutaneous injected GLP-1 RA-P. To estimate the bioavailability of sublingual delivery in relative to subcutaneous delivery in db/db mice, the blood glucose-lowering effects of two sublingual doses of varying amounts were compared with one subcutaneous dose of a specific amount at the 24-hour time point (just before the third sublingual dose). […] By comparing the combined effect of the two sublingual doses to the subcutaneous dose, the relative bioavailability is estimated.
Further, blood glucose levels in db/db mice are highly sensitive to changes in GLP-1 RA-P drug concentrations, making glucose measurements a reliable indicator of the drug's availability in the bloodstream. In the experiments described in this study, the db/db mouse model was used to evaluate the efficiency of sublingual drug delivery, estimate bioavailability via sublingual versus subcutaneous administration, and examine the cumulative effects of repeated sublingual dosing.
For these experiments, 30 male db/db mice, aged 6 weeks and weighing 35-40 g, were used. […]

[2] = semaglutide: based on the known highest dosage form for subcutaneous injection; cited from earlier work

Compound | bioavailability at 24 h [1] [%] | solubility in aqueous buffer [2] [mg/mL]
CC[C@H](C)[C@H](NC(=O)[C@H](CC(C)C)NC(=O)[C@H](Cc1c[nH]c2ccccc12)NC(=O)[C@H](CCC(N)=O)NC(=O)[C@@H](NC(=O)[C@H](Cc1ccccc1)NC(=O)[C@H](C)NC(=O)[C@H](CCCCNC(=O)COCCOCCNC(=O)COCCOCCNC(=O)CC[C@H](NC(=O)CCCCCCCCCCCCCCCCCCC(=O)O)C(=O)O)NC(=O)[C@H](CCC(N)=O)NC(=O)[C@H](C)NC(=O)[C@@H](NC(=O)[C@H](CCCCN)NC(=O)[C@H](CC(=O)O)NC(=O)[C@H](CC(C)C)NC(=O)C(C)(C)NC(=O)[C@@H](NC(=O)[C@H](CO)NC(=O)[C@H](Cc1ccc(O)cc1)NC(=O)[C@H](CC(=O)O)NC(=O)[C@H](CO)NC(=O)[C@@H](NC(=O)[C@H](Cc1ccccc1)NC(=O)[C@@H](NC(=O)CNC(=O)[C@H](CCC(=O)O)NC(=O)C(C)(C)NC(=O)[C@@H](N)Cc1ccc(O)cc1)[C@@H](C)O)[C@@H](C)O)[C@@H](C)CC)[C@@H](C)CC)C(C)C)C(=O)N[C@@H](C)C(=O)NCC(=O)NCC(=O)N1CCC[C@H]1C(=O)N[C@@H](CO)C(=O)N[C@@H](CO)C(=O)NCC(=O)N[C@@H](C)C(=O)N1CCC[C@H]1C(=O)N1CCC[C@H]1C(=O)N1CCC[C@H]1C(=O)N[C@@H](CO)C(N)=O [tirzepatide] | 10 | –
CC[C@H](C)[C@H](NC(=O)[C@H](Cc1ccccc1)NC(=O)[C@H](CCC(=O)O)NC(=O)[C@H](CCCCNC(=O)COCCOCCNC(=O)COCCOCCNC(=O)CC[C@H](NC(=O)CCCCCCCCCCCCCCCCC(=O)O)C(=O)O)NC(=O)[C@H](C)NC(=O)[C@H](C)NC(=O)[C@H](CCC(N)=O)NC(=O)CNC(=O)[C@H](CCC(=O)O)NC(=O)[C@H](CC(C)C)NC(=O)[C@H](Cc1ccc(O)cc1)NC(=O)[C@H](CO)NC(=O)[C@H](CO)NC(=O)[C@@H](NC(=O)[C@H](CC(=O)O)NC(=O)[C@H](CO)NC(=O)[C@@H](NC(=O)[C@H](Cc1ccccc1)NC(=O)[C@@H](NC(=O)CNC(=O)[C@H](CCC(=O)O)NC(=O)C(C)(C)NC(=O)[C@@H](N)Cc1cnc[nH]1)[C@@H](C)O)[C@@H](C)O)C(C)C)C(=O)N[C@@H](C)C(=O)N[C@@H](Cc1c[nH]c2ccccc12)C(=O)N[C@@H](CC(C)C)C(=O)N[C@H](C(=O)N[C@@H](CCCNC(=N)N)C(=O)NCC(=O)N[C@@H](CCCNC(=N)N)C(=O)NCC(=O)O)C(C)C [semaglutide] | – | 3.2 (≈ 778 µM)
